The results in this text go back to ChEMBL document CHEMBL1136001, “Azapeptides structurally based upon inhibitory sites of cystatins as potent and selective inhibitors of cysteine proteases” (J Med Chem, 2002).

The target in assay [1] is T1, Papain (Carica papaya, UniProt P00784).
T1 sequence (P00784 whole entry): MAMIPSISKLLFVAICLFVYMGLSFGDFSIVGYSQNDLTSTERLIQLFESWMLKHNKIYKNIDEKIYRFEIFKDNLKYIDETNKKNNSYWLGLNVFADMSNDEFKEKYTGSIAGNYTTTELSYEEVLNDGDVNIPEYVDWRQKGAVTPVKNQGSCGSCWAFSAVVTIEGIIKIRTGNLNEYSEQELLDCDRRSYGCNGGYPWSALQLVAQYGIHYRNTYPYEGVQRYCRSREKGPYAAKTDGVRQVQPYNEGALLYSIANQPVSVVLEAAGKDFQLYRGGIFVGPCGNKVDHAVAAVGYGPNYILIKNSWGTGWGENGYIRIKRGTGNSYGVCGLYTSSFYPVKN
The assay can be described thus: In vitro inhibition of papain.

The target of assay [2] is T2, Papain (Carica papaya) (UniProt P00784).
T2 sequence (whole entry): T1 sequence (P00784 whole entry)
Briefly: Evaluated for inhibitory activity against papain; No inhibition.

The target in assay [3] is Cathepsin B (Homo sapiens, UniProt P07858). Briefly: Inhibition of Human Cathepsin B.
Assay [4] deals with T3, Cathepsin K (Homo sapiens, UniProt P43235).
T3 sequence (P43235 whole entry): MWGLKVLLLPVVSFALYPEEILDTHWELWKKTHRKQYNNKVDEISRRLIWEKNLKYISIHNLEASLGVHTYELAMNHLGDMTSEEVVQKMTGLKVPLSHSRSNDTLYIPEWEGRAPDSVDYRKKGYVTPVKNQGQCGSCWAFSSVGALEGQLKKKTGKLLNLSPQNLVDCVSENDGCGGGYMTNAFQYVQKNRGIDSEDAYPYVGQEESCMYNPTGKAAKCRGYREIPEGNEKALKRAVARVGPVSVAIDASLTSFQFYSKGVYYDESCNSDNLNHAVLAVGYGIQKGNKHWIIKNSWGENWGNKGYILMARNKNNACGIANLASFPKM
The assay can be described thus: Inhibition of Human Cathepsin K.

The source made the active and inactive calls. The calls are words filed in the database; no cut-off is given here. Non-standard residues stand in square brackets, D forms with d. Residues, ends and D or L forms follow the SMILES beside them. *: point of attachment. 1Nal = N[C@@H](Cc1cccc2ccccc12)C(=O)O; Cbz = O=C(OCc1ccccc1)*; NHBn = c1ccc(CN*)cc1; OBn = c1ccc(CO*)cc1; azaGly = NNC(=O)O

`CCOC(=O)[C@@H](NC(=O)NNC(=O)[C@H](Cc1ccccc1)NC(C)=O)C(C)C` came in with a Ki in assay [1] of 20 nM. In other words, the double-digit nanomolar range.
Turning to `CC(=O)N[C@@H](Cc1ccccc1)C(=O)NNC(=O)N[C@H](C(=O)O)C(C)C`, the NA result in assay [2] was “inactive”.
`CC(C)C[C@H](NC(=O)[C@H](CCCNC(=N)N)NC(=O)OCc1ccccc1)C(=O)N[C@H](C(=O)NNC(=O)N[C@H](C(=O)N[C@@H](C)C(N)=O)C(C)C)C(C)C` (HELM PEPTIDE1{[O=C(OCc1ccccc1)[*:2]].R.L.V.[O=C(NN[*:1])[*:2]].V.A.[am]}$$$$V2.0): the results for the Ki in assay [3], in assay [1] and in assay [4] were 0.12 nM, 0.56 nM and 2.13 nM, respectively.
For `CCOC(=O)NNC(=O)[C@@H](NC(=O)[C@H](CC(C)C)NC(=O)OC(C)(C)C)C(C)C`, the Ki in assay [1] amounted to 24 nM; in assay [4] it was 61 nM.
As for `CC[C@H](C)[C@H](NC(=O)NNC(=O)[C@H](Cc1cccc2ccccc12)NC(=O)[C@H](CC(C)C)NC(=O)[C@H](C)NC(=O)OCc1ccccc1)C(=O)N[C@H](C(=O)OC)C(C)C` (Cbz-AL[1Nal][azaGly]IV-OMe), the Ki in assay [3] was 1.58 nM; in assay [1] it was 0.1 nM; in assay [4] it was 5.75 nM.
`CCCCNC(=O)[C@@H](NC(=O)NNC(=O)[C@H](Cc1ccccc1)NC(C)=O)C(C)C` displayed a Ki in assay [1] of 28 nM.
In the case of `CCCCOC(=O)[C@@H](NC(=O)NNC(=O)[C@H](Cc1ccccc1)NC(C)=O)C(C)C`, in assay [1], the Ki came to 59 nM. Compared with the last compound, the Ki is about 2.1-fold higher.
Consider `CC[C@H](C)[C@H](NC(=O)NNC(=O)[C@@H](NC(=O)[C@H](CC(C)C)NC(=O)[C@H](C)NC(=O)OCc1ccccc1)[C@@H](C)CC)C(=O)N[C@H](C(=O)NCc1ccccc1)C(C)C` (Cbz-ALI[azaGly]IV-NHBn), for which the Ki in assay [3] is 0.25 nM; in assay [1], 1.35 nM; in assay [4], 2.45 nM.
`CC(=O)N[C@@H](Cc1ccccc1)C(=O)NNC(=O)N[C@H](C(=O)OCc1ccccc1)C(C)C` registered a Ki in assay [1] of 21 nM.
The same measure, in the same setting: the figure for `CNC(=O)[C@@H](NC(=O)NNC(=O)[C@H](Cc1ccccc1)NC(C)=O)C(C)C` is 32 nM.
Regarding `CC(C)C[C@H](N)C(=O)N[C@H](C(=O)NNC(=O)N[C@H](C(=O)OCc1ccccc1)C(C)C)C(C)C` (HELM PEPTIDE1{L.V.[O=C(NN[*:1])[*:2]].V.[c1ccc(CO[*:1])cc1]}$$$$V2.0), in assay [2], the NI entry is “inactive”.
Regarding `CC[C@H](C)[C@H](NC(=O)NNC(=O)[C@@H](NC(=O)[C@H](CC(C)C)NC(=O)[C@H](CCCN=C(N)N)NC(=O)OCc1ccccc1)C(C)C)C(=O)N[C@H](C(=O)OC)C(C)C` (Cbz-RLV[azaGly]IV-OMe), the Ki came out at 0.088 nM in assay [3], 0.77 nM in assay [1] and 21 nM in assay [4].
`CC[C@H](C)[C@H](NC(=O)NNC(=O)[C@H](Cc1ccc(OC)cc1)NC(=O)[C@H](CC(C)C)NC(=O)[C@H](C)NC(=O)OCc1ccccc1)C(=O)N[C@H](C(=O)OC)C(C)C` (Cbz-ALY(Me)[azaGly]IV-OMe): the Ki in assay [3] came out at 1.41 nM; in assay [1], 0.28 nM; in assay [4] it was 8.42 nM.
On to `COC(=O)[C@@H](NC(=O)NNC(=O)[C@H](Cc1ccccc1)NC(C)=O)C(C)C`, for which the affinity in assay [1] corresponds to a Ki of 61 nM. This lies in the double-digit nanomolar range.
In the case of `CC(C)C[C@H](NC(=O)OCc1ccccc1)C(=O)N[C@H](C(=O)NNC(=O)N[C@H](C(=O)OCc1ccccc1)C(C)C)C(C)C` (Cbz-LV[azaGly]V-OBn), the Ki in assay [3] amounted to 40 nM; in assay [1], 6.7 nM; in assay [4], 34 nM.
As to `CC(C)C[C@H](NC(=O)OCc1ccccc1)C(=O)N[C@@H](Cc1ccccc1)C(=O)NNC(=O)N[C@H](C(=O)OCc1ccccc1)C(C)C` (Cbz-LF[azaGly]V-OBn), the NI entry in assay [2] is “inactive”.
As for `CC(C)C[C@H](NC(=O)[C@H](CCCNC(=N)N)NC(=O)OCc1ccccc1)C(=O)N[C@H](C(=O)NNC(=O)N[C@@H](C)C(=O)NCC(N)=O)C(C)C` (HELM PEPTIDE1{[O=C(OCc1ccccc1)[*:2]].R.L.V.[O=C(NN[*:1])[*:2]].A.G.[am]}$$$$V2.0), the Ki worked out at 7.29 nM in assay [3], 0.78 nM in assay [1] and 6.76 nM in assay [4].
With `CC(C)C(NC(=O)NNC(=O)OC(C)(C)C)C(=O)OCc1ccccc1` (stereo not given), the NI entry in assay [2] is “inactive”.
For the compound `CC[C@H](C)[C@H](NC(=O)NNC(=O)[C@H](Cc1ccccc1)NC(=O)[C@H](CC(C)C)NC(=O)[C@H](C)NC(=O)OCc1ccccc1)C(=O)N[C@H](C(=O)OC)C(C)C` (Cbz-ALF[azaGly]IV-OMe), the Ki in assay [3] turned out to be 0.13 nM; in assay [1] it was 0.12 nM; in assay [4] it was 0.18 nM.
In turn, `CC(=O)N[C@@H](Cc1ccccc1)C(=O)NNC(=O)N[C@H](C(=O)NCc1ccccc1)C(C)C` showed a Ki in assay [1] of 30 nM.
Take `CC[C@H](C)[C@H](NC(=O)NNC(=O)[C@@H](NC(=O)[C@H](CC(C)C)NC(=O)[C@H](CCCN=C(N)N)NC(=O)OCc1ccccc1)C(C)C)C(=O)N[C@H](C(=O)N[C@@H](Cc1c[nH]c2ccccc12)C(N)=O)C(C)C` (HELM PEPTIDE1{[O=C(OCc1ccccc1)[*:2]].R.L.V.[O=C(NN[*:1])[*:2]].I.V.W.[am]}$$$$V2.0): the Ki in assay [3] is 13 nM; in assay [1], 17 nM; in assay [4] it was 72 nM.
The like results for `CC[C@H](C)[C@H](NC(=O)NNC(=O)[C@@H](NC(=O)[C@H](CC(C)C)NC(=O)[C@H](C)NC(=O)OCc1ccccc1)[C@@H](C)CC)C(=O)N[C@H](C(=O)OC)C(C)C` (Cbz-ALI[azaGly]IV-OMe) were, in that order, 0.3 nM, 0.95 nM and 2.12 nM.
As to `CC(C)C[C@H](NC(=O)[C@H](CCCN=C(N)N)NC(=O)OCc1ccccc1)C(=O)N[C@@H](Cc1ccccc1)C(=O)NNC(=O)N[C@H](C(=O)OCc1ccccc1)C(C)C` (Cbz-RLF[azaGly]V-OBn), the NI entry in assay [2] is “inactive”.
As for `CC(C)C[C@H](NC(=O)[C@H](CCCNC(=N)N)NC(=O)OCc1ccccc1)C(=O)N[C@H](C(=O)NNC(=O)N[C@@H](Cc1c[nH]c2ccccc12)C(=O)N[C@H](C(=O)N[C@@H](C)C(N)=O)C(C)C)C(C)C` (HELM PEPTIDE1{[O=C(OCc1ccccc1)[*:2]].R.L.V.[O=C(NN[*:1])[*:2]].W.V.A.[am]}$$$$V2.0), the Ki amounted to 43 nM in assay [3], 100 nM in assay [1] and 100 nM in assay [4].
On to `CC[C@H](C)[C@H](NC(=O)NNC(=O)[C@H](Cc1cnc[nH]1)NC(=O)[C@H](CC(C)C)NC(=O)[C@H](C)NC(=O)OCc1ccccc1)C(=O)N[C@H](C(=O)OC)C(C)C` (Cbz-ALH[azaGly]IV-OMe), for which the results for the Ki in assay [3], in assay [1] and in assay [4] were 0.03 nM, 0.58 nM and 0.86 nM, respectively.
